The source of these data is patent US8026342B2, “Compositions and methods for binding sphingosine-1-phosphate” (Lpath, Inc., priority 2006, dated 2011).

A short description of series [1]: Circular dichroism thermal denaturation of LT1009. The format is physicochemical. The protocol: Circular dichroism spectroscopy was performed separately from the formulation studies. An Aviv 202 CD spectrophotometer was used to perform these analyses. Near UV CD spectra were collected from 400 nm to 250 nm. In this region, the disulfides and aromatic side chains contribute to the CD signals. In the far UV wavelength region (250-190 nm), the spectra are dominated by the peptide backbone. Thermal denaturation curves were generated by monitoring at 205 nm, a wavelength commonly used for b-sheet proteins. Data was collected using 0.1 mg/ml samples with heating from 25° C. to 85° C. Data were collected in 1° C. increments. The total time for such a denaturation scan was between 70 and 90 minutes. The averaging time was 2 seconds.
(In general: CD spectra are sensitive to the conformation of chiral molecules.)

Series [2] deals with CNV and vascular leakage. The series can be described thus: Vascular leakage and CNV area after laser rupture of Bruch's membrane. Conditions: 5 μg intraocular. The class given is in vivo, C57BL/6 mice. The protocol: C57BL/6 mice (n=10) underwent laser rupture of Bruch's membrane in 3 locations in each eye and were given an intraocular injection of 5 μg of sonepcizumab in one eye and vehicle in the contralateral eye. At one week after laser rupture, the mice were given an intraperitoneal injection of 12 μl/g body weight of 1% fluorescein sodium and were euthanized 5 minutes later. The eyes were removed and fixed in PBS-buffered formalin at room temperature for 5 hours. Then the retinas were dissected, washed, and incubated with primary anti-PECAM-1. The retinas were then washed, incubated with secondary antibody (goat anti-rat IgG conjugated with rhodamine), and then flat mounted.
Quantification of CNV lesion area is measured by PECAM-1 staining. Quantification of vascular leakage is measured by fluorescein sodium staining. The total area of leakage from CNV=CNV+leakage (green)−area of CNV (red). Values represent the mean±SEM for n=10 mice/group. […] This is a 50% reduction in neovascularization (p-0.018). […] This is approximately a 38% reduction (p-0.017) in blood vessel leakage.

In series [3] the test system is RPMI 8226 tumor. The series can be described thus: RPMI 8226 human myeloma tumor xenograft. The class given is in vivo, CB17 SCID mice. The procedure:
Nude mice (CB17 SCID, aged 4-5 weeks, weight 18-22 gm, female mice obtained from Harlan) were injected sc with RPMI 8226 cells harvested from tissue culture (˜1×10^7 cells/mouse). When tumors grew to approximately 100 mm^3 in size, animals were pair-matched by tumor size into treatment and control groups (10 mice per group). Initial dosing began Day 1 following pair-matching. Animals in all groups were dosed by weight (0.01 ml per gram; 10 ml/kg). […] Bortezomib was administered by intravenous injection via tail vein once every three days for six treatments (Q3D×6).
Individual and group mean tumor volumes±SEM are recorded twice weekly until study completion beginning Day 1. Final mean tumor volume±SEM for each group are reported at study completion; animals experiencing partial or complete tumor regressions or animals experiencing technical or drug-related deaths are censored from these calculations.

The test system of series [4] is HT29 tumor. The series can be described thus: SC HT29 colorectal tumor xenograft. The class given is in vivo, athymic NCr-nu/nu mice. The settings on record: LT1009 50 mg/kg ip q2d; Avastin 20 mg/kg iv q4d; 5-FU 75 mg/kg ip q4d. The procedure: Nude mice were implanted sc near the right flank with one fragment per mouse of HT29 tumor from an in vivo passage. All treatments were initiated the day when 60 mice in each experiment established tumors ranging in size from approximately 100 to 200 mm^3. There were ten mice per treatment group. […] 75 mg/kg 5-FU and 20 mg/kg Avastin were administered ip and iv at a dosage of 75 mg/kg/dose and 20 mg/kg/dose, respectively, q4d, injected in a volume of 0.1 mL/10 g body weight.
(§1) Animals were observed daily for mortality. Tumor dimensions and body weights were collected twice weekly starting with the first day of treatment and including the day of study termination. When the median tumor in the vehicle-treated control group in each study reached approximately 4,000 mg, the study was terminated. Tumors from each animal were harvested, wet weights were recorded, and tumors were processed for determination of MVD by CD-31 staining. Tumor weights (mg) were calculated using the equation for an ellipsoid sphere (l×w^2)/2=mm^3, where l and w refer to the larger and smaller dimensions collected at each measurement and assuming unit density (1 mm^3=1 mg).

The subject of series [5] is COLO205 tumor. The series can be described thus: SC COLO205 colorectal tumor xenograft. The class given is in vivo, nude NCr (nu/nu) mice. The protocol:
Nude mice were implanted sc near the right flank with one fragment per mouse of COLO 205 tumor from an in vivo passage. All treatments were initiated the day when 60 mice in each experiment established tumors ranging in size from approximately 100 to 200 mm3. […] Avastin was administered iv at a dosage of 40 mg/kg/dose on a q7d schedule, injected in a volume of 0.1 mL/20 g body weight. Paclitaxel (positive control), was administered iv at a dosage of 15 mg/kg/dose on a q1d×5 schedule, injected in a volume of 0.1 mL/10 g body weight.
as §1, with “recorded,” for “recorded, and”, “microvascular densities (MVD)” for “MVD”

Series [6] can be described thus: BIAcore binding of murine anti-S1P mAb to S1P immobilized on chip. Conditions: read-out: affinity (Kd) for S1P. The protocol: Binding kinetics: The binding kinetics of S1P to its receptor or other moieties has, traditionally, been problematic because of the nature of lipids. Many problems have been associated with the insolubility of lipids. For BIAcore measurements, these problems were overcome by directly immobilizing S1P to a BIAcore chip. Antibody was then flowed over the surface of the chip and alterations in […] were measured to determine the binding characteristics of the antibody to S1P. To circumvent the bivalent binding nature of antibodies, S1P was coated on the chip at low densities. Additionally, the chip was coated with various densities of S1P (7, 20, and 1000 RU) and antibody binding data was globally fit to a 1:1 interaction model.
In general terms: SPR reads the build-up and loss of mass on a sensor chip optically.

Series [7] is described as follows: Surface plasmon resonance (Biacore 2000) binding to S1P-coated chip. The settings on record: read-out: Binding Affinity (KD1). The procedure: Each concentration was tested in duplicate. […] All data were collected at 25° C.
Setting [8] is: LT1009 50 mg/kg IP Q3D to end, Bortezomib iv Q3D×6.
Where [9] appears, read: LT1009 25 mg/kg ip q3d, increased to 75 mg/kg on Day 21.
The mark [10] stands for this setting: LT1009 50 mg/kg ip q3d, Avastin 40 mg/kg iv q7d, Paclitaxel 15 mg/kg iv q1d×5.

As to “LT1009: humanized anti-S1P IgG1/kappa mAb with Cys to Ala in HCDR2, light chain with 5 backmutations; SEQ ID NO: 31/32”, the results for the “apparent Tm” value in series [1] (pH 6.0) and in series [1] (pH 7.2) were “about 77 °C” and “approximately 73 °C”, respectively. For the same molecule, in series [2], the “reduction in blood vessel leakage vs saline” value is reported as about 38%. In addition, the “reduction in neovascularization vs saline” value in series [2] turned out to be 50%. For the same molecule, the “area of choroidal neovascularization (PECAM-1)” value in series [2] (one week after laser) was “approximately 0.015 mm^2”. In series [2] (one week after laser), the “area of leakage from choroidal neovascularization (fluorescein)” value is “approximately 0.125 mm^2”. Besides, the “% Reduction compared to Vehicle-Treated Mice” value in series [3] (LT1009 25 mg/kg IP Q3D to end) was found to be 11%; in series [3] (setting [8]), 5%; in series [4], 13%; in series [5] (setting [9]), 20%; in series [5] (setting [10]), 32%. Besides, the “Final Tumor Weights” value in series [3] (LT1009 25 mg/kg IP Q3D to end) worked out at 1860 mg; in series [3] (setting [8]), 1978 mg; in series [4] it was 2390.63 mg; in series [5] (setting [9]) it was 2465.60 mg; in series [5] (setting [10]), 2071.17 mg.

B1: LT1002: murine anti-S1P monoclonal antibody, IgG1 kappa, from hybridoma clone 306D326.26 (antibody, listed as Mus sp., V domains shown)
VH: QAHLQQSDAELVKPGASVKISCKVSGFIFIDHTIHWMKQRPEQGLEWIGCISPRHDITKYNEMFRGKATLTADKSSTTAYIQVNSLTFEDSAVYFCARGGFYGSTIWFDFWGQGTTLTVS
VL: ETTVTQSPASLSMAIGEKVTIRCITTTDIDDDMNWFQQKPGEPPNLLISEGNILRPGVPSRFSSSGYGTDFLFTIENMLSEDVADYYCLQSDNLPFTFGSGTKLEIK
On to B1, for which the Kd in series [6] is under 0.1 nM; in series [7], 0.026 nM.
